Experimental data: ChEMBL document CHEMBL3739284, “Anteaglonialides A-F and Palmarumycins CE(1)-CE(3) from Anteaglonium sp. FL0768, a Fungal Endophyte of the Spikemoss Selaginella arenicola” (J Nat Prod, 2015)

Assay: Cytotoxicity against human CHP100 cells after 24 hrs by MTT assay
Assay type: functional, cell-based
Conditions: CHP100, 24 h

SMILES	IC50 [nM]
O=C1C=CC2(Oc3cccc4cccc(c34)O2)[C@H]([C@H]2CCC(=O)O2)C1	1400
O=C1C=C[C@H]2O[C@H]3CC(=O)[C@@H]1[C@@H]2C31Oc2cccc3cccc(c23)O1	400
O=C1C=CC2(Oc3cccc4cccc(c34)O2)c2cccc(O)c21	1600
